The subject of the assay is RBL-2H3 cells. Put plainly: Inhibition of serotonin liberation from IgE-sensitized RBL-2H3 cells after antigen stimulation. The assay is classed as cell-based, rat. To be noted: Rattus norvegicus. An excerpt:
IgE-sensitized RBL-2H3 cells (i.e., a cell line originating in rat cells) release and produce not only histamine and serotonin but also cytokines such as TNF α and prostaglandins which are inflammatory mediators after stimulation with IgE sepecific antibody. In this experimental system, inhibitory effects on various mediators release were examined by using serotonin as an indication.
The cells were beforehand labeled with [^3H]-labeled serotonin and, at the same time, sensitized with the IgE antibody. After incubating with the compounds of the present invention, the cells were stimulated with the specific antigen. Then the inhibitory activity of each compound was calculated from the amount of the [^3H]-labeled serotonin thus liberated into the medium and the amount of [^3H]-labeled serotonin liberated when no compound of the present invention was added.

Where [1] appears, read: [3H]-serotonin release, IgE-sensitized RBL-2H3 cells, antigen stimulation, read-out: IC50 (μM) in serotonin liberation from RBL-2H3 cells.

Like-named read-outs stand apart in the source and are kept apart here. Some results are limits rather than exact numbers.

With `Cc1ccc2c(=NOCC(C)(C)C(=O)O)c3ccccc3n(CCCNCc3ccccc3)c2c1C` [Example 248], the IC50 under setting [1] worked out at 10 µM. On the same count and under the same terms, as for `Cc1ccc2c(c1C)N(CCCNCc1cc(Br)cc(Cl)c1O)c1ccccc1[S+]2[O-]` (stereo not shown) [Example 41], the figure is 5 µM. As for `Cc1ccc2c(c1C)N(CCCN)c1ccccc1N(C)C2=O` [Example 257], the IC50 under setting [1] was determined as 12 µM. The same measure, in the same setting: under `Cc1ccc2c(c1C)N(CCCNCc1ccccc1)c1ccccc1N(C)C2=O` [Example 259] stands 4 µM. On to `CCC(ON=c1c2ccccc2n(CCCNCc2ccccc2)c2c(C)c(C)ccc12)C(=O)O` (stereo not shown) [Example 237], for which, under setting [1], the IC50 stood at 10 µM.

`Cc1ccc2c(c1C)N(Cc1cccc(CN)n1)c1ccccc1S2` [Example 3]: the IC50 under setting [1] came out at 10 µM.

`Cc1ccc2c(=NO)c3ccccc3n(CCCNCc3ccccc3)c2c1C` [Example 230]: the IC50 under setting [1] was 6 µM. `COCOc1cccnc1CNCCN1c2ccccc2[S+]([O-])c2ccc(C)c(C)c21` (stereo not shown) [Example 160]: the IC50 under setting [1] stood at 2 µM. Still for that read-out and setting: as for `Cc1ccc2c(=NOC(C)C)c3ccccc3n(CCCN)c2c1C` [Example 223], the figure is 10 µM; as for `Cc1ccc2c(c1C)N(CCCNCc1ccccc1C(=O)O)c1ccccc1[S+]2[O-]` (stereo not shown) [Example 55], 8 µM. As to `Cc1ccc2c(=NOCc3ccccn3)c3ccccc3n(CCCN)c2c1C` [Example 220], under setting [1], the IC50 worked out at 6 µM. Regarding `Cc1ccc2c(=NOCCC(N)=O)c3ccccc3n(CCCNCc3ccccc3)c2c1C` [Example 251], the IC50 under setting [1] was 5 µM. Same read-out and setting: under `CCOC(=O)/C(C)=C/c1cc(OC)c(CNCCCN2c3ccccc3[S+]([O-])c3ccc(C)c(C)c32)s1` (stereo not shown) [Example 76] stands 3 µM; under `COC(=O)Cc1cccc2c1[S+]([O-])c1ccc(C)c(C)c1N2CCCNCc1ccccc1` (stereo not shown) [Example 261], 10 µM.

Turning to `Cc1ccc2c(=NOCCC(=O)N(C)C)c3ccccc3n(CCCNCc3ccccc3)c2c1C` [Example 244], the IC50 under setting [1] is 3 µM. Take `Cc1ccc2c(c1C)N(CCCN1CCN(C(C(=O)O)c3ccccc3)CC1)c1ccccc1[S+]2[O-]` (stereo not shown) [Example 111]: the IC50 under setting [1] was 2 µM. On to `CCC/C=C1/c2ccccc2N(CCCNCc2ccccc2)c2c1ccc(C)c2C` [Example 207], for which, under setting [1], the IC50 came out at 15 µM. The same measure, in the same setting: under `Cc1ccc2c(c1C)N(CCCNCc1ccccc1Cl)c1ccccc1[S+]2[O-]` (stereo not shown) [Example 52] stands 3 µM; under `C#CCNCCCN1c2ccccc2[S+]([O-])c2ccc(C)c(C)c21` (stereo not shown) [Example 126], 3 µM. `COc1cc(CNCCN2c3ccccc3[S+]([O-])c3ccc(C)c(C)c32)cc(OC)c1O` (stereo not shown) [Example 149]: the IC50 under setting [1] turned out to be 8 µM. Regarding `Cc1ccc2c(c1C)N(CCN1CCC(O)(c3ccccc3)CC1)c1ccccc1[S+]2[O-]` (stereo not shown) [Example 192], the IC50 (RBL-2H3, read-out: IC50 (μM) in serotonin liberation from RBL-2H3 cells) was 5 µM. Take `Cc1ccc2c(c1C)N(CCCNCc1nc3ccccc3s1)c1ccccc1[S+]2[O-]` (stereo not shown) [Example 68]: under setting [1], the IC50 is 4 µM. As to `Cc1ccc2c(c1C)N(CCCN)c1cc(CCO)ccc1[S+]2[O-]` (stereo not shown) [Example 9], the IC50 under setting [1] is below 1 µM. Same read-out and setting: under `Cc1cccc(CNCCCN2c3ccccc3[S+]([O-])c3ccc(C)c(C)c32)n1` (stereo not shown) [Example 71] stands 8 µM. Turning to `Cc1ccc2c(=NOCCC(=O)O)c3ccccc3n(CCCN)c2c1C` [Example 216], the IC50 under setting [1] is 3 µM.

Regarding `Cc1ccc2c(c1C)N(CCCNCc1nccnc1Cl)c1ccccc1[S+]2[O-]` (stereo not shown) [Example 75], under setting [1], the IC50 is 6 µM. The same measure, in the same setting: under `Cc1ccc2c(c1C)N(CCCN(CC#N)CC#N)c1ccccc1[S+]2[O-]` (stereo not shown) [Example 131] stands 3 µM; under `CCCON=c1c2ccccc2n(CCCNCc2ccccc2)c2c(C)c(C)ccc12` [Example 232], 10 µM. Same read-out and setting: under `Cc1ccc2c(c1C)N(CCCNc1nc[nH]n1)c1ccccc1[S+]2[O-]` (stereo not shown) [Example 118] stands 10 µM; under `Cc1ccc2c(=NOC(C)C#N)c3ccccc3n(CCCNCc3ccccc3)c2c1C` (stereo not shown) [Example 253], 10 µM. On the same count and under the same terms, as for `Cc1ccc2c(=NOC(C)C(=O)O)c3ccccc3n(CCCN)c2c1C` (stereo not shown) [Example 217], the figure is 2 µM.

With `Cc1ccc2c(=NOCC(=O)O)c3ccccc3n(CCCN)c2c1C` [Example 215], the IC50 under setting [1] is 3 µM.

Consider `Cc1ccc2c(=NOCCCC(=O)O)c3ccccc3n(CCCNCc3ccccc3)c2c1C` [Example 242], for which the IC50 under setting [1] came out at 6 µM. Still for that read-out and setting: as for `Cc1ccc2c(c1C)N(CCNCc1cc(C)c(O)c(C)c1)c1ccccc1[S+]2[O-]` (stereo not shown) [Example 148], the figure is 8 µM; as for `Cc1ccc2c(c1C)N(CCCNCc1[nH]cnc1C)c1ccccc1[S+]2[O-]` (stereo not shown) [Example 74], 2 µM; as for `Cc1ccc2c(c1C)N(CCCN1CCN(Cc3ccccc3)C(C(=O)O)C1)c1ccccc1[S+]2[O-]` (stereo not shown) [Example 110], 1 µM. Still for that read-out and setting: under `CCCON=c1c2ccccc2n(CCCN)c2c(C)c(C)ccc12` [Example 211] stands 10 µM; under `Cc1ccc2c(c1C)N(CCCN(CC(=O)O)Cc1ccccc1)c1ccccc1[S+]2[O-]` (stereo not shown) [Example 109], 3 µM; under `Cc1ccc2c(c1C)N(CCCN(CC(=O)O)Cc1ccccc1)c1ccccc1S2` [Example 5], 5 µM.

`CCON=c1c2ccccc2n(CCCNC(C)c2ccccc2)c2c(C)c(C)ccc12` (stereo not shown) [Example 255]: the IC50 under setting [1] came out at 8 µM.

`COc1ccsc1CNCCCN1c2ccc(C#N)cc2[S+]([O-])c2ccc(C)c(C)c21` (stereo not shown) [Example 89]: under setting [1], the IC50 stood at 2 µM.

`Cc1ccc2c(=NOCCc3ccccn3)c3ccccc3n(CCCN)c2c1C` [Example 212]: the IC50 under setting [1] came out at 6 µM. `C=C1c2ccccc2N(CCCNCc2ccccc2)c2c1ccc(C)c2C` [Example 206, 3,4-Dimethyl-9-methylene-10-(3-benzylaminopropyl)acridan]: under setting [1], the IC50 is 15 µM. For the molecule `Cc1ccc2c(c1C)N(CCCNCc1ccccc1)c1ccccc1C(=O)N2C` [Example 260], the IC50 under setting [1] was determined as 6 µM. Still for that read-out and setting: as for `Cc1ccc2c(c1C)N(Cc1cccc(CNCc3ccccc3)n1)c1ccccc1S2` [Example 6], the figure is 10 µM; as for `COc1ccc(O)c(CNCCCN2c3ccccc3[S+]([O-])c3ccc(C)c(C)c32)c1O` (stereo not shown) [Example 38], 8 µM. As to `Cc1ccc2c(c1C)N(CCCN1CCC(N(C)C)CC1)c1ccccc1[S+]2[O-]` (stereo not shown) [Example 107], under setting [1], the IC50 came out at 2 µM. The same measure, in the same setting: as for `Cc1ccc2c(c1C)N(CCCN1CCOCC1)c1ccccc1[S+]2[O-]` (stereo not shown) [Example 103, 1,2-Dimethyl-10-[3-(4-morpholino)propyl]phenothiazine-5Oxide], the figure is below 3 µM. As to `Cc1ccc2c(c1C)N(CCNc1ccccc1O)c1ccccc1[S+]2[O-]` (stereo not shown) [Example 194], the IC50 under setting [1] is 10 µM.

Regarding `Cc1ccc2c(c1C)N(CCCN1CCN(Cc3ccccn3)CC1)c1ccccc1[S+]2[O-]` (stereo not shown) [Example 112], under setting [1], the IC50 worked out at 1 µM. As for `Cc1ccc2c(=NOC(C)C)c3ccccc3n(CCCNCc3ccccc3)c2c1C` [Example 243], under setting [1], the IC50 is 6 µM. As to `Cc1ccc2c(c1C)N(CCCN)c1cc(Br)ccc1[S+]2[O-]` (stereo not shown) [Example 10], the IC50 under setting [1] was determined as 3 µM. The same measure, in the same setting: as for `Cc1ccc2c(=NO)c3ccccc3n(CCCN)c2c1C` [Example 209], the figure is 15 µM; as for `Cc1ccc2c(c1C)N(CCCNCc1ccccc1)c1cc(-c3nn[nH]n3)ccc1[S+]2[O-]` (stereo not shown) [Example 98], 0.5 µM; as for `Cc1ccc2c(=NOCCCC(=O)N(C)C)c3ccccc3n(CCCN)c2c1C` [Example 222], 10 µM.

Values taken from US6703388B2, “Nitrogen-containing tricyclic compounds and drugs containing the same” (Eisai Co., Ltd., priority 1996, dated 2004).
